Experimental data taken from US7008905B2, “Method of combating undesired plant growth on cereals” (BASF Aktiengesellschaft, priority 2000, dated 2006).

Tests used:
Type in all cases: in vivo
barley = experiment: Pre-emergence test, tolerance in barley
Method: The pre-emergence tests involve spraying a liquid formulation of the compound onto the soil in which the seeds of the plant species mentioned above has recently been sown.
The soil used in the tests is a prepared horticultural loam. The formulations used in the tests are prepared from solutions of the test compounds in acetone containing 0.4% by weight of an alkylphenol/ethylene oxide condensate available under the trade mark TRITON X-155.
These acetone solutions are diluted with water and the resulting formulations applied at dosage levels corresponding to 15 g, 30 g, 60 g, 120 g or 240 g of active material per hectare in a volume equivalent to 900 liters per hectare. In these tests untreated sown soil is used as control. The herbicidal effects of the test compounds are assessed visually three weeks after spraying the soil and are recorded an a 0 to 100 scale. A rating 0 indicates growth as untreated control, a rating 100 indicates death. An increase of 10 unit an the linear scale approximates to a 10% increase in the level of effect. The results of the assessment are set out in Tables 1 to 4.

[1] = test system: Triticum aestivum variety “Monopol”; experiment: Post-emergence test, selectivity; conditions: 2–4 weeks after treatment, rating 0-100 (100=death), Table 6
Method: (§1) These acetone solutions are diluted with water and the resulting formulations applied at dosage levels equivalent of about 0.030 to 0.240 kg per hectare of test compound per pot. After spraying the plants are placed an greenhouse benches and are cared for in the usual manner, commensurate with conventional greenhouse practices. From 2 to 4 weeks after treatment, the seedling plants are examined and rated according to the rating system provided above. A rating 0 indicates growth as untreated control, a rating 100 indicates death.

[2] = test system: Triticum aestivum variety “Kanzler”; experiment: Post-emergence test, selectivity; conditions: 2–4 weeks after treatment, rating 0-100 (100=death), Table 6
Method: as §1

Matricaria inodora = experiment: Post-emergence test, weed control; conditions: 2–4 weeks after treatment, rating 0-100 (100=death), Table 5
Method: as §1

Lamium purpureum = experiment: Post-emergence test, weed control; conditions: 2–4 weeks after treatment, rating 0-100 (100=death), Table 5
Method: as §1

Stellaria media = experiment: Post-emergence test, weed control; conditions: 2–4 weeks after treatment, rating 0-100 (100=death), Table 5
Method: as §1

[3] = test system: grasses and broadleaf weeds; experiment: Post-emergence test, overall weed control
Method: as §1

wheat = experiment: Pre-emergence test, tolerance in wheat
Summary of the method: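 Herbicidal effect was scored visually on a 0–100 scale (100 = death, 0 = untreated-like) three weeks after treatment. Soil was horticultural loam sprayed just after sowing with aqueous-diluted acetone/0.4% TRITON X-155 formulations at 15–240 g a.i./ha (900 L/ha).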

Compound | TRZAWM rating (Selectivity) ([1]; 0.03 kg/ha) | TRZAWM rating (Selectivity) ([1]; 0.06 kg/ha) | TRZAWM rating (Selectivity) ([1]; 0.12 kg/ha) | TRZAWM rating (Selectivity) ([1]; 0.24 kg/ha) | TRZAWK rating (Selectivity) ([2]; 0.03 kg/ha) | TRZAWK rating (Selectivity) ([2]; 0.06 kg/ha) | TRZAWK rating (Selectivity) ([2]; 0.12 kg/ha) | TRZAWK rating (Selectivity) ([2]; 0.24 kg/ha) | MATIN weed control rating (Matricaria inodora; 0.030 kg/ha) | MATIN weed control rating (Matricaria inodora; 0.060 kg/ha) | MATIN weed control rating (Matricaria inodora; 0.120 kg/ha) | MATIN weed control rating (Matricaria inodora; 0.240 kg/ha) | LAMPU weed control rating (Lamium purpureum; 0.030 kg/ha) | LAMPU weed control rating (Lamium purpureum; 0.060 kg/ha) | LAMPU weed control rating (Lamium purpureum; 0.120 kg/ha) | LAMPU weed control rating (Lamium purpureum; 0.240 kg/ha) | STEME weed control rating (Stellaria media; 0.030 kg/ha) | STEME weed control rating (Stellaria media; 0.060 kg/ha) | STEME weed control rating (Stellaria media; 0.120 kg/ha) | STEME weed control rating (Stellaria media; 0.240 kg/ha) | further results
Cc1cnc(-c2ccc(C(F)(F)F)cc2)nc1Oc1cccc(C(F)(F)F)c1 [REF-1] | 15 | 22 | 30 | 45 | 18 | 25 | 30 | 40 | 70 | 75 | 75 | 85 | 93 | 93 | 93 | 93 | 80 | 90 | 92 | 92 | dose at which sufficiently selective in barley (barley): did not exhibit acceptable tolerance in barley at any dose
Cc1nc(-c2ccc(C(F)(F)F)cc2)nc(Oc2cccc(C(F)(F)F)c2)c1C [REF-2] | 2 | 5 | 8 | 8 | 3 | 5 | 8 | 10 | 35 | 45 | 55 | 60 | 85 | 90 | 92 | 93 | 45 | 50 | 55 | 80 | –
CCc1cc(Oc2cccc(C(F)(F)F)c2)nc(-c2ccc(C(F)(F)F)cc2)n1 [REF-3] | 10 | 15 | 22 | 30 | 12 | 15 | 25 | 35 | 65 | 80 | 85 | 85 | 93 | 93 | 93 | 93 | 65 | 85 | 85 | 92 | weed control at wheat selective doses [3]: incomplete; maximum tolerated dose in wheat / dose at which sufficiently selective in wheat (wheat; in vivo): 60 g/ha
FC(F)(F)c1ccc(-c2nccc(Oc3cccc(C(F)(F)F)c3)n2)cc1 [TTP, 4-(3-trifluoromethylphenoxy)-2-(4-trifluoromethyl-phenyl)-pyrimidine] | 1 | 8 | 8 | 12 | 2 | 8 | 8 | 15 | 50 | 90 | 75 | 90 | 85 | 75 | 92 | 93 | 50 | 60 | 70 | 90 | dose at which sufficiently selective in barley (barley): 15 g/ha; maximum tolerated dose in wheat / dose at which sufficiently selective in wheat (wheat; pre-emergence): 240 g/ha
